Test results as given in patent publication US20250242017A1, “HISTAMINE AND HRH1 SIGNALING ACTIVITY AS BIOMARKERS AND ASSOCIATED METHODS” (Board of Regents, The University of Texas System, priority 2022, published 2025).

Key:
[1] = test system: EO771 tumors
From the text: (§1) Tumor inductions and treatment experiments.
(§2) Isolation of tumor-infiltrating cells.
(§3) Flow cytometry staining and analysis.

[2] = test system: CT26 tumors; assay: CT26 colorectal carcinoma model; settings: WT mice
Description: Tumor inductions and treatment experiments. […] For the CT26 model, 2×10^5 CT26 cells were subcutaneously injected into the back of BALB/c mice. […] Treatments were given as single agents or in combination, with the following regimen for each drug. […] Treatments were initiated on day 5 after tumor inoculation for the entire duration of the experiment. […] Anti-VISTA antibody (clone 13F3, Bio X Cell, 300 mg/mouse) was injected subcutaneously every day for 10 days starting on day 7, followed by continuous injection every 2 days for the rest of the duration of the experiment (Le Mercier et al., 2014). […] Tumor size was measured by calipers every second or third day when tumors were palpable, and the volume was calculated using the formula V=as (width×width×length)/2.

[3] = test system: LLC tumors; assay: LLC lung carcinoma model; type: in vivo, mouse; settings: FEXO-treated vs vehicle-treated
From the text: as §1, §2, §3

[4] = test system: B16-GM tumors; assay: B16-GM melanoma model
Description: Tumor inductions and treatment experiments. […] For LLC and B16-GM models, 2×10^5 tumor cells were subcutaneously injected into the back of C57BL/6 mice. […] Treatments were given as single agents or in combination, with the following regimen for each drug. […] Treatments were initiated on day 5 after tumor inoculation for the entire duration of the experiment. […] Anti-VISTA antibody (clone 13F3, Bio X Cell, 300 mg/mouse) was injected subcutaneously every day for 10 days starting on day 7, followed by continuous injection every 2 days for the rest of the duration of the experiment (Le Mercier et al., 2014). For in vivo CD8+ T cell depletion, mice were treated with 200 mg of anti-CD8 antibody every 3-4 days starting at 3 days before B16-GM tumor inoculation. […] Tumor size was measured by calipers every second or third day when tumors were palpable, and the volume was calculated using the formula V=as (width×width×length)/2.
Isolation of tumor-infiltrating cells. Mouse tumor samples were chopped with scissors and then subjected to enzymatic digestion with 2 mg/ml collagenase A (Roche) in DMEM for 1 hour at 37° C. Next, tissues were filtered through 70-mm filters (BD Biosciences) to achieve single-cell suspensions. After treatment with red blood cell lysis buffer for 5 minutes at room temperature, all samples were washed and re-suspended in flow cytometry buffer (phosphate-buffered saline/0.5% albumin/2 mM EDTA) or DMEM depending on further use.
Flow cytometry staining and analysis. Live single cells were sub-gated by staining with Fixable Viability Dye eFluor 450 (eBioscience) for 15 minutes at 4° C. For blocking of Fc receptors, cells were then pre-incubated with purified anti-CD16/32 antibody (clone 93, BioLegend) for 10 minutes on ice before immunostaining. After one wash with flow cytometry buffer, cells were incubated with appropriate dilutions of various combinations of the following antibodies. Primary antibodies to cell surface markers directed against CD45 (30-F11), CD3 (145-2C11), CD8a (53¬6.7), CD11b (M1/70), Gr-1 (RB6-8C5), F4/80 (BM8), CD206 (C068C2), I-A/I-E (M5/114.15.2), VISTA (MHSA), Tim-3 (B8.2C12), CD11c (N418), CD24 (M1/69), GITRL (YGL 386), ICOSL (HK5.3), 4-1BBL (TKS-1), CD276 (RTAA15), OX40L (RM134L), Galectin-9 (RG9-35), PD-L1 (10F.9G2), and PD-L2 (TY25) were from BioLegend; against HRH1 (480054), from R&D Systems; against HRH1 (AHR-001), from Alomone Labs; and against Siglec-F (E50-2440), from BD Biosciences. For intracellular staining, cells were fixed, permeabilized using Foxp3/Transcription Factor Staining Buffer Set (eBioscience), and then stained with fluorochrome-conjugated antibodies to Ki-67 (16A8) and PRF1 (S16009A) from BioLegend.

[5] = test system: CT26 tumors; assay: CT26 tumor model with or without OVA-induced allergic airway disease; type: in vivo, mouse
From the text: as §1, §2, §3

[6] = test system: CD8+ T cells; assay: In vitro co-culture of macrophages with T cells; type: cell-based, mouse
Description: In vitro co-culture with T cells. Spleens from wild-type C57BL/6 or BALB/c mice were harvested and filtered through a […] cell strainer to generate a single-cell suspension. After red blood cell lysis, splenocytes were counted and plated in complete Roswell Park Memorial Institute 1640 medium supplemented with […] b-mercaptoethanol and 10 mM HEPES onto 12-well plates coated with […] anti-CD3 (clone 145-2C11, BioLegend) and […] anti-CD28 (clone 37N, BioLegend) antibodies. Spleen T cells were activated for 48 hours before co-culture with macrophages. To educate the macrophages, we co-cultured naïve BMDMs with tumor cells at a ratio of 1:1 or with tumor cell-derived conditioned medium for 48 hours. Macrophages were seeded with activated T cells at a ratio of 5:1. After co-culture for another 24 or 48 hours, T cells were collected for flow cytometry analysis.
as §3

[7] = test system: macrophages; assay: Intracellular calcium measurement (Fluo-Forte); type: cell-based, mouse; settings: after histamine or TCM treatment
Description: Intracellular calcium measurement. Intracellular Ca2+ was determined using the Fluo-Forte calcium assay kit (Enzo Life Sciences) according to the manufacturer's instructions. Fluorescence was measured using a BD FACSCanto II Flow Cytometer.

[8] = test system: bone marrow-derived macrophages (BMDMs); settings: TCM-treated WT BMDMs; FEXO 10 mM, 48 h
Description: Generation of naïve bone marrow-derived macrophages (BMDMs). Bone marrow cells were collected from femurs obtained from 8- to 10-week-old C57BL/6 or BALB/c mice. After red blood cell lysis, bone marrow cells were seeded at a density of 5×10^6 cells/150×15 mm Petri dish and cultured at 37° C. in complete Dulbecco modified Eagle medium (DMEM) containing 20% L929 cell-conditioned medium, providing macrophage colony-stimulating factor. Macrophages were ready for use on day 7 following a fresh medium change on day 4.
Macrophage polarization and stimulation. To polarize macrophages toward an M1-like phenotype, we stimulated PBMC-derived macrophages or BMDMs with IFN-g (20 ng/ml, PeproTech) for 48 hours. To induce an M2-like phenotype, we treated THP-1-derived macrophages or BMDMs with IL-4 (20 ng/mL, PeproTech) for 48 hours. […] To stimulate macrophages with tumor cell-derived conditioned medium (TCM), we cultured BMDMs with complete medium containing 50% TCM (volume).
Flow cytometry staining and analysis. Live single cells were sub-gated by staining with Fixable Viability Dye eFluor 450 (eBioscience) for 15 minutes at 4° C. For blocking of Fc receptors, cells were then pre-incubated with purified anti-CD16/32 antibody (clone 93, BioLegend) for 10 minutes on ice before immunostaining. […]

[9] = test system: 4T1 tumors; assay: 4T1 mammary tumor model; type: in vivo, mouse
From the text: as §1, §2, §3

[10] = test system: EMT6 tumors; assay: EMT6 tumor model with or without OVA-induced allergic airway disease; type: in vivo, mouse
From the text: as §1, §2, §3

[11] = test system: OVA-transduced EO771 tumor cells; assay: In vitro T cell killing assay (OT-I); type: cell-based, mouse; settings: in presence of FEXO-treated macrophages
Description: In vitro T cell killing assays. Ovalbumin (OVA)-expressing EO771 cells alone or co-cultured with macrophages at a ratio of 1:2 were plated into 12-well plates. The following day, OT-I T cells pre-activated by OVA257-264 were added to the plates at the indicated ratio. After co-culture for another 48 hours, the tumor cells were harvested and counted to determine T cell killing ability.

[12] = FEXO-treated WT mice vs controls
[13] = FEXO-treated vs vehicle-treated WT mice
[14] = PD-L1-/- mice treated with FEXO

## CC(C)(C(=O)O)c1ccc(C(O)CCCN2CCC(C(O)(c3ccccc3)c3ccccc3)CC2)cc1 (centres unmarked) [FEXO, fexofenadine]
[1]; [12]
  VISTA expression on TAMs: Reduced VISTA expression
[1]; [13]
  numbers of IFN-g+ and PRF1+ CD8+ T cells: increased numbers
  tumor growth: reduced tumor growth
[1]; [14]
  survival: dramatically prolonged survival
  tumor inhibition: most effective tumor inhibition
[2]
  CT26 tumor growth: delayed tumor growth
[3]
  VISTA on TAMs: Decreased VISTA on TAMs
[4]; [12]
  VISTA expression on TAMs: Reduced VISTA expression
[4]; FEXO-treated WT mice, anti-CD8 antibodies
  inhibition of B16-GM tumor growth under CD8+ T cell depletion: blocked by depleting CD8+ T cells
[4]; [13]
  numbers of IFN-g+ and PRF1+ CD8+ T cells: increased numbers
  tumor growth: reduced tumor growth
[4]; after surgical removal of primary melanomas at 100 mm3, FEXO vs vehicle
  B16-GM lung metastases: inhibited
[5]; OVA-allergic BALB/c mice
  allergy-increased CT26 tumor growth: largely blocked by FEXO treatment
[5]; allergic mice, ICB+FEXO
  sensitivity of tumors to ICB therapy with FEXO treatment: largely restored sensitivity
[6]; FEXO treatment of HRH1-/- macrophages vs vehicle-treated HRH1-/- macrophages
  T cell activation/killing: did not increase
[6]; FEXO-treated macrophages cultured with WT splenic T cells
  TAM-mediated T cell suppression (T cell proliferation, IFN-g, PRF1): abrogated TAM-mediated T cell suppression
[7]
  intracellular free Ca2+ levels: higher in WT macrophages than in HRH1−/− macrophages and FEXO-treated WT macrophages
[8]
  M1-M2 polarization status (MHCII, CD206): polarized macrophages toward an M1-like phenotype
[9]; FEXO-treated WT mice bearing 4T1 tumor vs controls
  VISTA expression on alveolar macrophages from lung metastases: downregulated
[9]; FEXO-treated vs vehicle-treated
  VISTA on TAMs: Decreased VISTA on TAMs
[10]; OVA-allergic BALB/c mice
  allergy-accelerated EMT6 tumor growth: largely blocked by FEXO treatment
[10]; allergic mice, ICB+FEXO
  sensitivity of tumors to ICB therapy with FEXO treatment: largely restored sensitivity
[11]
  OT-I cell-mediated killing of OVA-transduced EO771 tumor cells: increased ovalbumin (OVA)-specific OT-I cell-mediated killing
